In the NIST ThermoML archive (doi:10.1007/s10765-012-1370-2):
± gives the expanded uncertainty stated by the source.

Assay: xn = mol fraction of the nth substance listed
Details: Liquid, Bellows volumetry

CCC [propane] + O=C=O
mass density [kg/m3]
Details | 280 K | 320 K | 360 K | 400 K | 440 K
3000 kPa, x2 = 0.1744 | 556.31 ± 1.1 | – | – | – | –
5000 kPa, x2 = 0.1744 | 561.89 ± 1.1 | 482.68 ± 0.97 | – | – | –
10000 kPa, x2 = 0.1744 | 573.48 ± 1.2 | 508.23 ± 1 | 419.87 ± 0.84 | – | –
10000 kPa, x2 = 0.3863 | 620.48 ± 1.3 | 530.48 ± 1.1 | – | – | –
10000 kPa, x2 = 0.5837 | 680.55 ± 1.4 | 547.46 ± 1.1 | – | – | –
10000 kPa, x2 = 0.7732 | 763.91 ± 1.6 | – | – | – | –
20000 kPa, x2 = 0.1744 | 592.16 ± 1.2 | 539.43 ± 1.1 | 481.41 ± 0.97 | – | –
20000 kPa, x2 = 0.3863 | 644.94 ± 1.3 | 577.9 ± 1.2 | 501.31 ± 1 | 416.94 ± 0.84 | –
20000 kPa, x2 = 0.5837 | 713.25 ± 1.5 | 623.7 ± 1.3 | 518.21 ± 1 | – | –
20000 kPa, x2 = 0.7732 | 807.46 ± 1.7 | 683.7 ± 1.4 | 532.45 ± 1.1 | – | –
30000 kPa, x2 = 0.1744 | 606.51 ± 1.2 | 560.67 ± 1.1 | 513.49 ± 1 | 463.97 ± 0.93 | –
30000 kPa, x2 = 0.3863 | 663.74 ± 1.4 | 606.46 ± 1.2 | 546.54 ± 1.1 | 484.73 ± 0.97 | 425.58 ± 0.86
30000 kPa, x2 = 0.5837 | 737.38 ± 1.5 | 663.4 ± 1.4 | 584.42 ± 1.2 | 504.63 ± 1 | –
30000 kPa, x2 = 0.7732 | 837.33 ± 1.7 | 738.49 ± 1.5 | 631.46 ± 1.3 | 526.28 ± 1.1 | –
40000 kPa, x2 = 0.1744 | 619.31 ± 1.3 | 577.4 ± 1.2 | 535.86 ± 1.1 | 493.75 ± 1 | 453.4 ± 0.91
40000 kPa, x2 = 0.3863 | 678.81 ± 1.4 | 628.01 ± 1.3 | 576.34 ± 1.2 | 524.65 ± 1.1 | 475.39 ± 0.96
40000 kPa, x2 = 0.5837 | 756.53 ± 1.6 | 691.1 ± 1.4 | 624.74 ± 1.3 | 558.9 ± 1.1 | 498.14 ± 1
40000 kPa, x2 = 0.7732 | 861.06 ± 1.8 | 775.23 ± 1.6 | 686.69 ± 1.4 | 600.44 ± 1.2 | 524.14 ± 1.1
50000 kPa, x2 = 0.1744 | 629.89 ± 1.3 | 591.36 ± 1.2 | 553.69 ± 1.1 | 515.97 ± 1 | 480.3 ± 0.97
50000 kPa, x2 = 0.3863 | 691.83 ± 1.4 | 645.47 ± 1.3 | 599.05 ± 1.2 | 553.29 ± 1.1 | 510.05 ± 1
50000 kPa, x2 = 0.5837 | 772.63 ± 1.6 | 713.18 ± 1.5 | 654.15 ± 1.3 | 596.39 ± 1.2 | 543.19 ± 1.1
50000 kPa, x2 = 0.7732 | 880.32 ± 1.8 | 803.46 ± 1.7 | 725.46 ± 1.5 | 650.25 ± 1.3 | 582.81 ± 1.2
60000 kPa, x2 = 0.1744 | 639.83 ± 1.3 | 603.47 ± 1.2 | 568.6 ± 1.2 | 533.68 ± 1.1 | 501.53 ± 1
60000 kPa, x2 = 0.3863 | 703.48 ± 1.4 | 660.15 ± 1.4 | 617.66 ± 1.3 | 575.8 ± 1.2 | 536.68 ± 1.1
60000 kPa, x2 = 0.5837 | 786.68 ± 1.6 | 731.74 ± 1.5 | 677.69 ± 1.4 | 625.2 ± 1.3 | 577.1 ± 1.2
60000 kPa, x2 = 0.7732 | 897.67 ± 1.9 | 826.73 ± 1.7 | 755.67 ± 1.6 | 687.92 ± 1.4 | 626.71 ± 1.3
70000 kPa, x2 = 0.1744 | 648.12 ± 1.3 | 613.78 ± 1.2 | 581.28 ± 1.2 | 548.87 ± 1.1 | 518.95 ± 1.1
70000 kPa, x2 = 0.3863 | 713.93 ± 1.5 | 673.05 ± 1.4 | 633.44 ± 1.3 | 594.51 ± 1.2 | 558.53 ± 1.1
70000 kPa, x2 = 0.5837 | 799.31 ± 1.7 | 747.63 ± 1.6 | 697.37 ± 1.4 | 648.89 ± 1.3 | 604.68 ± 1.2
70000 kPa, x2 = 0.7732 | 912.73 ± 1.9 | 846.24 ± 1.8 | 780.83 ± 1.6 | 718.31 ± 1.5 | 661.78 ± 1.4
80000 kPa, x2 = 0.1744 | 656.23 ± 1.3 | 623.2 ± 1.3 | 592.36 ± 1.2 | 561.96 ± 1.1 | 533.91 ± 1.1
80000 kPa, x2 = 0.3863 | 723.24 ± 1.5 | 684.45 ± 1.4 | 647.34 ± 1.3 | 610.56 ± 1.2 | 576.94 ± 1.2
80000 kPa, x2 = 0.5837 | 810.6 ± 1.7 | 761.45 ± 1.6 | 714.31 ± 1.5 | 668.81 ± 1.4 | 627.72 ± 1.3
80000 kPa, x2 = 0.7732 | 927.24 ± 1.9 | 863.57 ± 1.8 | 802.2 ± 1.7 | 743.76 ± 1.5 | 690.97 ± 1.4
90000 kPa, x2 = 0.1744 | 663.51 ± 1.4 | 631.77 ± 1.3 | 602.5 ± 1.2 | 573.37 ± 1.2 | 546.96 ± 1.1
90000 kPa, x2 = 0.3863 | 732.5 ± 1.5 | 694.88 ± 1.4 | 659.51 ± 1.4 | 624.68 ± 1.3 | 592.95 ± 1.2
90000 kPa, x2 = 0.5837 | 821.14 ± 1.7 | 773.99 ± 1.6 | 729.21 ± 1.5 | 686.29 ± 1.4 | 647.49 ± 1.3
90000 kPa, x2 = 0.7732 | 939.34 ± 2 | 879.25 ± 1.8 | 821 ± 1.7 | 765.81 ± 1.6 | 715.85 ± 1.5
100000 kPa, x2 = 0.1744 | 670.12 ± 1.4 | 639.8 ± 1.3 | 611.43 ± 1.2 | 583.87 ± 1.2 | 558.7 ± 1.1
100000 kPa, x2 = 0.3863 | 740.27 ± 1.5 | 704.18 ± 1.4 | 670.54 ± 1.4 | 637.16 ± 1.3 | 607.11 ± 1.2
100000 kPa, x2 = 0.5837 | 830.57 ± 1.7 | 785.61 ± 1.6 | 742.72 ± 1.5 | 701.68 ± 1.4 | 664.74 ± 1.4
100000 kPa, x2 = 0.7732 | 951.22 ± 2 | 893.05 ± 1.9 | 837.52 ± 1.7 | 785.16 ± 1.6 | 737.47 ± 1.5
120000 kPa, x2 = 0.1744 | 682.47 ± 1.4 | 654.22 ± 1.3 | 627.94 ± 1.3 | 601.92 ± 1.2 | 578.72 ± 1.2
120000 kPa, x2 = 0.3863 | 754.61 ± 1.6 | 721.25 ± 1.5 | 690.06 ± 1.4 | 658.95 ± 1.4 | 631.24 ± 1.3
120000 kPa, x2 = 0.5837 | 847.84 ± 1.8 | 806 ± 1.7 | 766.21 ± 1.6 | 728.37 ± 1.5 | 694.36 ± 1.4
120000 kPa, x2 = 0.7732 | 971.86 ± 2 | 917.78 ± 1.9 | 866.62 ± 1.8 | 818.25 ± 1.7 | 774.63 ± 1.6
140000 kPa, x2 = 0.1744 | 693.54 ± 1.4 | 666.67 ± 1.4 | 642.06 ± 1.3 | 617.62 ± 1.3 | 595.88 ± 1.2
140000 kPa, x2 = 0.3863 | 767.28 ± 1.6 | 735.96 ± 1.5 | 706.76 ± 1.4 | 677.58 ± 1.4 | 651.66 ± 1.3
140000 kPa, x2 = 0.5837 | 862.96 ± 1.8 | 824.18 ± 1.7 | 786.28 ± 1.6 | 750.66 ± 1.6 | 719.21 ± 1.5
140000 kPa, x2 = 0.7732 | 989.75 ± 2.1 | 939.18 ± 1.9 | 891.18 ± 1.9 | 845.81 ± 1.8 | 805.33 ± 1.7
160000 kPa, x2 = 0.1744 | 703.41 ± 1.4 | 678.11 ± 1.4 | 654.39 ± 1.3 | 631.49 ± 1.3 | 610.94 ± 1.2
160000 kPa, x2 = 0.3863 | 779.18 ± 1.6 | 749.2 ± 1.5 | 721.47 ± 1.5 | 693.82 ± 1.4 | 669.67 ± 1.4
160000 kPa, x2 = 0.5837 | 876.77 ± 1.8 | 839.79 ± 1.8 | 803.84 ± 1.7 | 770.18 ± 1.6 | 740.68 ± 1.5
160000 kPa, x2 = 0.7732 | 1006.14 ± 2.1 | 958.02 ± 2 | 912.47 ± 1.9 | 869.72 ± 1.8 | 831.52 ± 1.7
180000 kPa, x2 = 0.1744 | 712.71 ± 1.5 | 688.17 ± 1.4 | 665.89 ± 1.4 | 643.58 ± 1.3 | 624.2 ± 1.3
180000 kPa, x2 = 0.3863 | 789.73 ± 1.6 | 761.05 ± 1.6 | 734.92 ± 1.5 | 708.41 ± 1.4 | 685.33 ± 1.4
180000 kPa, x2 = 0.5837 | 889 ± 1.9 | 853.99 ± 1.8 | 819.85 ± 1.7 | 787.61 ± 1.6 | 759.39 ± 1.6
180000 kPa, x2 = 0.7732 | 1020.76 ± 2.1 | 975.24 ± 2 | 931.8 ± 1.9 | 890.88 ± 1.9 | 854.41 ± 1.8
200000 kPa, x2 = 0.1744 | 720.96 ± 1.5 | 697.95 ± 1.4 | 676.04 ± 1.4 | 654.96 ± 1.3 | 636.19 ± 1.3
200000 kPa, x2 = 0.3863 | 799.56 ± 1.6 | 772.24 ± 1.6 | 746.96 ± 1.5 | 721.61 ± 1.5 | 699.19 ± 1.4
200000 kPa, x2 = 0.5837 | 900.92 ± 1.9 | 866.84 ± 1.8 | 833.79 ± 1.7 | 803.17 ± 1.7 | 776.34 ± 1.6
200000 kPa, x2 = 0.7732 | 1034.57 ± 2.2 | 990.64 ± 2.1 | 948.91 ± 2 | 909.94 ± 1.9 | 875.02 ± 1.8
